Reference: patent US20260356834A1, “ANTICONVULSIVE COMPOUNDS AND USES THEREOF” (Jazz Pharmaceuticals Research UK Limite, priority 2023, published 2026)

test system: C57BL/6J mice; assay: mouse maximal electroshock seizure threshold model using minimal sample sizes (mini-MEST); conditions: 30 mg/kg i.p., 30 min post dose
Experimental: An increase in seizure threshold is indicative of an anticonvulsive effect.
The ability of a test compound to alter the stimulus intensity, expressed as current (mA), required to induce the presence of tonic hind limb extensor convulsions, is assessed in the MEST.
In the mini-MEST test, a lower n number is used.
Male C57BL/6J mice were housed in groups of 6. Mice were kept under standard conditions (12 hour light cycle; light intensity of 25-75 lux) and fed a diet of certified rodent CR 14% protein rodent diet (LabDiet® 4CR4). Mice were 8-9 weeks old at the start of the study.
Naïve mice were acclimatised to the procedure room in their home cages for up to 7 days, with food and water available ad libitum.
All animals were weighed at the beginning of the study and randomly assigned to treatment groups based on a mean distribution of body weight across groups.
The first animal within a treatment group was given a shock at the expected or estimated CC50 current. For subsequent animals, the current was lowered or raised depending on the convulsions outcome from the preceding animal in log scale intervals.
Data generated from each treatment group were used to calculate the CC50±SEM values for the treatment group.
Vehicle: (5% ethanol, 10% Solutol® (Kolliphor® HS 15), 85% saline). 1 mL of ethanol, 2 mL of Solutol™ were warmed to 60 °C, in 17 mL of 0.9% saline.
Test compounds: 5-50 mg/kg in a 1:2:17 ethanol:Solutol®:saline formulation (as used for vehicle).

Compound | CC50 +/− SEM [mA] | Change from vehicle (CC50) [%]
CCCc1cc(O)c(-c2cccn3ccnc23)c(O)c1 [Compound 1, 2-(imidazo[1,2-a]pyridin-8-yl)-5-propylbenzene-1,3-diol] | 92.9 ± 1.1 | 200
CCCc1cc(O)c(-c2c(C)ccn3cc(C)nc23)c(O)c1 [Compound 3, 2-(2,7-Dimethylimidazo[1,2-a]pyridin-8-yl)-5-propylbenzene-1,3-diol] | 35.3 ± 1.1 | 32
CCCc1cc(O)c(-c2c(C(F)(F)F)ccn3ccnc23)c(O)c1 [Compound 5, 2-(7-trifluoromethylimidazo[1,2-a]pyridin-8-yl)-5-propylbenzene-1,3-diol] | <33.0 | <12
CCCc1cc(O)c(-c2c(Cl)ccn3ccnc23)c(O)c1 [Compound 6, 2-(7-Chloroimidazo[1,2-a]pyridin-8-yl)-5-propylbenzene-1,3-diol] | 49.9 ± 1.9 | 70
CCCc1cc(O)c(-c2c(C)c(C)cn3ccnc23)c(O)c1 [Compound 7, 2-(6,7-Dimethylimidazo[1,2-a]pyridin-8-yl)-5-propylbenzene-1,3-diol] | 53.5 ± 1.1 | 100
CCCc1cc(O)c(-c2c(F)ccn3ccnc23)c(O)c1 [Compound 8, 2-(7-Fluoroimidazo[1,2-a]pyridin-8-yl)-5-propylbenzene-1,3-diol] | 65.8 ± 1.9 | 145
CCCc1cc(O)c(-c2c(C)ccn3c(C)cnc23)c(O)c1 [Compound 9, 2-(3,7-Dimethylimidazo[1,2-a]pyridin-8-yl)-5-propylbenzene-1,3-diol] | 58.6 ± 1.6 | 152
CCCc1cc(O)c(-c2c(C)ccn3c(Cl)cnc23)c(O)c1 [Compound 10, 2-(3-Chloro-7-methylimidazo[1,2-a]pyridin-8-yl)-5-propylbenzene-1,3-diol] | <33.0 ± 0.0 | <29
CCCc1cc(O)c(-c2c(C)ccn3cc(Cl)nc23)c(O)c1 [Compound 12, 2-(2-Chloro-7-methylimidazo[1,2-a]pyridin-8-yl)-5-propylbenzene-1,3-diol] | 57.3 ± 1.9 | 145
CCCCCc1cc(O)c(-c2c(C)ccn3ccnc23)c(O)c1 [Compound 13, 2-(7-Methylimidazo[1,2-a]pyridin-8-yl)-5-pentylbenzene-1,3-diol] | 92.9 ± 1.1 | 263
Cc1ccn2ccnc2c1-c1c(O)cccc1O [Compound 14, 2-(7-Methylimidazo[1,2-a]pyridin-8-yl)benzene-1,3-diol] | <33.0 | <52
CCCc1cc(O)c(-c2c(C)ccn3cc(C(F)(F)F)nc23)c(O)c1 [Compound 15, 2-(2-Trifluoromethyl-7-methylimidazo[1,2-a]pyridin-8-yl)-5-propylbenzene-1,3-diol] | 35.3 ± 1.1 | 62
CCCc1cc(O)c(-c2c(C)c(C(F)(F)F)cn3ccnc23)c(O)c1 [Compound 16, 2-(6-Trifluoromethyl-7-methylimidazo[1,2-a]pyridin-8-yl)-5-propylbenzene-1,3-diol] | <33.0 | <35
CCCCCc1cc(O)c(-c2c(C)c(Cl)cn3ccnc23)c(O)c1 [Compound 17, 2-(6-Chloro-7-methylimidazo[1,2-a]pyridin-8-yl)-5-pentylbenzene-1,3-diol] | 80.9 ± 10.8 | 231
CCCc1cc(O)c(-c2c(C3CC3)ccn3ccnc23)c(O)c1 [Compound 18, 2-(7-Cyclopropylimidazo[1,2-a]pyridin-8-yl)-5-propylbenzene-1,3-diol] | 80.9 ± 1.1 | 216

same assay, conditions: 50 mg/kg p.o., 30 min post dose

Compound | CC50 +/− SEM [mA] | Change from vehicle (CC50) [%]
CCCc1cc(O)c(-c2c(C3CC3)ccn3ccnc23)c(O)c1 [Compound 18, 2-(7-Cyclopropylimidazo[1,2-a]pyridin-8-yl)-5-propylbenzene-1,3-diol] | 49.9 ± 1.9 | 86
